Source: ChEMBL document CHEMBL1201862, “PubChem BioAssay data set” (2004)
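Values below derive from 48-hour exposures of cells grown in 96-well plates, with endpoints linearly interpolated between the two concentrations bracketing the appropriate inhibition level. GI50 marks 50% less growth.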 Active and inactive are the calls of the source. No stated cut-off is given here; in the data, active = GI50 up to about 1.1 µM and inactive = higher.

How the values were obtained:
Assay in all cases: NCI tumour cell line growth inhibition, 48 h
A549 = tested on: A549
CAKI-1 = tested on: CAKI-1
CCRF-CEM = tested on: CCRF-CEM
COLO 205 = tested on: COLO 205
HCT-15 = tested on: HCT-15
MDA-MB-435 = tested on: MDA-MB-435
NCI/ADR-RES = tested on: NCI/ADR-RES
OVCAR-3 = tested on: OVCAR-3
OVCAR-4 = tested on: OVCAR-4
SF-268 = tested on: SF-268
SF-539 = tested on: SF-539
SK-MEL-5 = tested on: SK-MEL-5
SK-OV-3 = tested on: SK-OV-3
SN12C = tested on: SN12C
SNB-19 = tested on: SNB-19
T47D = tested on: T47D
UACC-257 = tested on: UACC-257
UACC-62 = tested on: UACC-62
EKVX = tested on: EKVX

Row | Structure (SMILES) | GI50 (A549) | GI50 (CAKI-1) | GI50 (CCRF-CEM) | GI50 (COLO 205) | GI50 (HCT-15) [µM] | GI50 (MDA-MB-435) | GI50 (NCI/ADR-RES) | GI50 (OVCAR-3) | GI50 (OVCAR-4) | GI50 (SF-268) | GI50 (SF-539) | GI50 (SK-MEL-5) | GI50 (SK-OV-3) | GI50 (SN12C) | GI50 (SNB-19) | GI50 (T47D) | GI50 (UACC-257) | GI50 (UACC-62) | GI50 (EKVX)
1 | Cc1ccc(C(=O)/C=C2\Nc3ccccc3S\C2=N\CS(=O)(=O)c2ccc(C)cc2)cc1 | > 10 µM (inactive) | > 10 µM (inactive) | > 10 µM (inactive) | > 10 µM (inactive) | > 10 | > 10 µM (inactive) | > 10 µM (inactive) | 4.33 µM (inactive) | 4.02 µM (inactive) | > 10 µM (inactive) | > 10 µM (inactive) | > 10 µM (inactive) | 6.89 µM (inactive) | > 10 µM (inactive) | > 10 µM (inactive) | 8.2 µM (inactive) | > 10 µM (inactive) | > 10 µM (inactive) | –
2 | O=C(Nc1cc(C(=O)Nc2cccc(S(=O)(=O)O)c2)cc(C(=O)Nc2cccc(S(=O)(=O)O)c2)c1)c1cccc(C(=O)Nc2cc(C(=O)Nc3cccc(S(=O)(=O)O)c3)cc(C(=O)Nc3cccc(S(=O)(=O)O)c3)c2)c1 | > 100 µM (inactive) | > 100 µM (inactive) | > 100 µM (inactive) | > 100 µM (inactive) | 50.7 | > 100 µM (inactive) | > 100 µM (inactive) | > 100 µM (inactive) | > 100 µM (inactive) | > 100 µM (inactive) | > 100 µM (inactive) | > 100 µM (inactive) | > 100 µM (inactive) | > 100 µM (inactive) | – | > 100 µM (inactive) | > 100 µM (inactive) | > 100 µM (inactive) | > 100 µM (inactive)
3 | Cc1ccc(/N=N/c2c(O)ccc3ccccc23)cc1 | > 100 µM (inactive) | > 100 µM (inactive) | 27.1 µM (inactive) | > 100 µM (inactive) | 64 | > 100 µM (inactive) | > 100 µM (inactive) | 32.4 µM (inactive) | > 100 µM (inactive) | > 100 µM (inactive) | – | > 100 µM (inactive) | > 100 µM (inactive) | > 100 µM (inactive) | 95.7 µM (inactive) | > 100 µM (inactive) | > 100 µM (inactive) | > 100 µM (inactive) | > 100 µM (inactive)
4 | COC(=O)C1(Cc2ccccc2)Cc2c(C)ccc(C)c2C1=O (stereo unspecified) | 11.1 µM (inactive) | – | 34.8 µM (inactive) | 12.4 µM (inactive) | 31 | 17.4 µM (inactive) | 28.1 µM (inactive) | 29.2 µM (inactive) | 32.4 µM (inactive) | 39.6 µM (inactive) | 39.9 µM (inactive) | 11.3 µM (inactive) | 35.3 µM (inactive) | 47.8 µM (inactive) | 48.4 µM (inactive) | 16.7 µM (inactive) | 25.8 µM (inactive) | 11.5 µM (inactive) | 4.69 µM (inactive)
5 | COc1cc(C[S+]([O-])c2ccc(O)cc2)cc(OC)c1OC (stereo unspecified) | > 100 µM (inactive) | > 100 µM (inactive) | > 100 µM (inactive) | > 100 µM (inactive) | > 100 | > 100 µM (inactive) | > 100 µM (inactive) | > 100 µM (inactive) | – | > 100 µM (inactive) | > 100 µM (inactive) | > 100 µM (inactive) | > 100 µM (inactive) | > 100 µM (inactive) | > 100 µM (inactive) | > 100 µM (inactive) | > 100 µM (inactive) | > 100 µM (inactive) | > 100 µM (inactive)
6 | CCCC(=O)NC1=C(NCC)C(=O)c2ccccc2C1=O | > 100 µM (inactive) | – | > 100 µM (inactive) | 36.6 µM (inactive) | 39.8 | 25.2 µM (inactive) | > 10 µM (inactive) | 34.2 µM (inactive) | > 100 µM (inactive) | > 100 µM (inactive) | > 100 µM (inactive) | 74.1 µM (inactive) | > 100 µM (inactive) | > 100 µM (inactive) | > 100 µM (inactive) | > 100 µM (inactive) | 39.4 µM (inactive) | > 100 µM (inactive) | –
7 | O=[N+]([O-])c1cc(-c2ccc([As](=O)(O)O)cc2)ccc1[As](=O)(O)O | > 100 µM (inactive) | > 100 µM (inactive) | > 100 µM (inactive) | – | > 100 | > 100 µM (inactive) | > 100 µM (inactive) | > 100 µM (inactive) | > 100 µM (inactive) | > 100 µM (inactive) | – | > 100 µM (inactive) | – | > 100 µM (inactive) | > 100 µM (inactive) | > 100 µM (inactive) | > 100 µM (inactive) | > 100 µM (inactive) | > 100 µM (inactive)
8 | CCOC(=O)c1cn(CC)c2ccc3ccsc3c2c1=O | > 100 µM (inactive) | > 100 µM (inactive) | > 100 µM (inactive) | > 100 µM (inactive) | > 100 | > 100 µM (inactive) | > 100 µM (inactive) | > 100 µM (inactive) | > 100 µM (inactive) | > 100 µM (inactive) | > 100 µM (inactive) | > 100 µM (inactive) | > 100 µM (inactive) | – | > 100 µM (inactive) | > 100 µM (inactive) | > 100 µM (inactive) | > 100 µM (inactive) | > 100 µM (inactive)
9 | CC1=C/C(=N/N2C(=O)/C(=C/c3ccc(Cl)cc3)N=C2c2ccccc2)CC(C)(C)C1 | 78.2 µM (inactive) | > 100 µM (inactive) | – | > 100 µM (inactive) | > 100 | 51.3 µM (inactive) | 60.7 µM (inactive) | – | 45.9 µM (inactive) | 73.3 µM (inactive) | 47.1 µM (inactive) | 35.7 µM (inactive) | > 100 µM (inactive) | > 100 µM (inactive) | 65.5 µM (inactive) | 85.9 µM (inactive) | 69.2 µM (inactive) | 61.9 µM (inactive) | 81.7 µM (inactive)
10 | CN(C)c1n2c3cc([N+](=O)[O-])ccc3[n+]3c(N(C)C)n4ccccc4c3c2c2cccc[n+]12.[O-][Cl+3]([O-])([O-])[O-].[O-][Cl+3]([O-])([O-])[O-] | > 100 µM (inactive) | > 100 µM (inactive) | > 100 µM (inactive) | > 100 µM (inactive) | > 100 | > 100 µM (inactive) | > 100 µM (inactive) | > 100 µM (inactive) | > 100 µM (inactive) | 29.7 µM (inactive) | – | > 100 µM (inactive) | > 100 µM (inactive) | 38.9 µM (inactive) | 43.1 µM (inactive) | 73.3 µM (inactive) | > 100 µM (inactive) | > 100 µM (inactive) | > 100 µM (inactive)
11 | COC(=O)CCc1cc(OC)c2c(c1)[C@H](C(=O)OC)[C@@H](c1ccc(O)c(OC)c1)O2 | 39.5 µM (inactive) | – | 33.8 µM (inactive) | 41.2 µM (inactive) | 32.7 | 15.1 µM (inactive) | 40.9 µM (inactive) | 47.2 µM (inactive) | 84.1 µM (inactive) | 52.6 µM (inactive) | 48.2 µM (inactive) | 35 µM (inactive) | 42.8 µM (inactive) | 56.9 µM (inactive) | 51.9 µM (inactive) | 55.5 µM (inactive) | > 100 µM (inactive) | 39.8 µM (inactive) | 58.2 µM (inactive)
12 | O=C(O)CC(NC(=O)Nc1ccc([N+](=O)[O-])cc1)C(=O)Nc1ccc([N+](=O)[O-])cc1 (stereo unspecified) | > 100 µM (inactive) | > 100 µM (inactive) | > 100 µM (inactive) | > 100 µM (inactive) | > 100 | > 100 µM (inactive) | > 100 µM (inactive) | > 100 µM (inactive) | > 100 µM (inactive) | 9.44 µM (inactive) | > 100 µM (inactive) | 50.8 µM (inactive) | > 100 µM (inactive) | – | > 100 µM (inactive) | > 100 µM (inactive) | > 100 µM (inactive) | 0.69 µM (active) | > 100 µM (inactive)
13 | NC(CNO)C(=O)O (stereo unspecified) | > 100 µM (inactive) | > 100 µM (inactive) | – | > 100 µM (inactive) | > 100 | > 100 µM (inactive) | > 100 µM (inactive) | > 100 µM (inactive) | > 100 µM (inactive) | > 100 µM (inactive) | > 100 µM (inactive) | > 100 µM (inactive) | > 100 µM (inactive) | > 100 µM (inactive) | > 100 µM (inactive) | > 100 µM (inactive) | > 100 µM (inactive) | > 100 µM (inactive) | > 100 µM (inactive)
14 | O=[N+]([O-])c1ccc2sc(/C=N/c3cnccn3)cc2c1 | 64.9 µM (inactive) | 57.3 µM (inactive) | 13.7 µM (inactive) | 39.8 µM (inactive) | 34.4 | 18.4 µM (inactive) | 70.3 µM (inactive) | 23.7 µM (inactive) | – | 27.2 µM (inactive) | 31.6 µM (inactive) | 45.8 µM (inactive) | 30.4 µM (inactive) | 45.6 µM (inactive) | 65 µM (inactive) | 0.714 µM (active) | 27.8 µM (inactive) | 17.1 µM (inactive) | 39.1 µM (inactive)
15 | CC(=O)c1cccc(NC(=O)C(=O)c2c(O)oc3ccccc3c2=O)c1 | > 100 µM (inactive) | > 100 µM (inactive) | > 100 µM (inactive) | – | > 100 | > 100 µM (inactive) | > 100 µM (inactive) | > 100 µM (inactive) | > 100 µM (inactive) | > 100 µM (inactive) | > 100 µM (inactive) | > 100 µM (inactive) | > 100 µM (inactive) | > 100 µM (inactive) | > 100 µM (inactive) | > 100 µM (inactive) | > 100 µM (inactive) | > 100 µM (inactive) | > 100 µM (inactive)
